Data as given in ChEMBL document CHEMBL3779887, “Robenidine Analogues as Gram-Positive Antibacterial Agents” (J Med Chem, 2016).
In brackets after ≈: the same amount, converted by molar mass. Activity calls are given as the source filed them. The rule behind the calls is not given here.

Columns and labels:
[1] = system: Staphylococcus aureus; experiment: Bactericidal activity against […] Staphylococcus aureus clinical isolate USA300 assessed as log reduction in bacterial cell number at 8 times MIC after 24 hrs by time-kill curve analysis; type: functional, organism-based
[2] = Toxicity in po dosed female rabbit; type: organism-based, Oryctolagus cuniculus; details: in vivo
[3] = Toxicity in po dosed male rabbit; type: organism-based, Oryctolagus cuniculus; details: in vivo
[4] = system: Staphylococcus aureus; experiment: Inhibition of biofilm formation in methicillin-resistant Staphylococcus aureus assessed as log reduction at > 43.2 uM after 24 hrs by MBEC assay relative to control; type: functional
[5] = system: Staphylococcus aureus; experiment: Antibacterial activity against methicillin-resistant Staphylococcus aureus clinical isolate after 20 to 24 hrs; type: functional
[6] = system: Staphylococcus aureus; experiment: Bactericidal activity against […] Staphylococcus aureus clinical isolate USA300 assessed as log reduction in bacterial cell number at 4 times MIC after 24 hrs by time-kill curve analysis; type: functional, organism-based
[7] = system: Staphylococcus aureus; experiment: Inhibition of biofilm formation in methicillin-resistant Staphylococcus aureus after 24 hrs by MBEC assay; type: functional
[8] = system: Babesia microti; experiment: Antiprotozoal activity against Babesia microti ATCC PRA-99 infected in BALB/c mouse assessed as suppression of parasitemia at 25 and 50 mg/kg, administered 4 times daily; type: functional
[9] = system: Staphylococcus aureus; experiment: Bactericidal activity against […] Staphylococcus aureus clinical isolate USA300 assessed as log reduction in bacterial cell number at 4 times MIC after 8 hrs by time-kill curve analysis; type: functional
[10] = system: Staphylococcus aureus; experiment: Antibacterial activity against methicillin-sensitive Staphylococcus aureus ATCC 29213 after 20 to 24 hrs in presence of 50% heat inactivated bovine serum
[11] = Lipophilicity, logD of the compound at pH 3; type: physicochemical; details: buffer
[12] = system: Pseudomonas aeruginosa; experiment: Antibacterial activity against Pseudomonas aeruginosa ATCC 27853 after 20 to 24 hrs in presence of polymyxin B nonapeptide; type: functional
[13] = system: Staphylococcus aureus; experiment: Antibacterial activity against methicillin-sensitive Staphylococcus aureus ATCC 29213 after 20 to 24 hrs in presence of 50% heat inactivated bovine serum; remark: listed apart in the source
[14] = system: Staphylococcus aureus; experiment: Bactericidal activity against […] Staphylococcus aureus clinical isolate USA300 assessed as log reduction in bacterial cell number at MIC after 24 hrs by time-kill curve analysis; type: functional, organism-based
[15] = Selectivity index, ratio of GI50 for human HepG2 cells to MIC50 for methicillin-sensitive Staphylococcus aureus clinical isolate; type: functional
[16] = Toxicity in po dosed rat; type: organism-based; details: in vivo
[17] = system: Staphylococcus aureus; experiment: Antibacterial activity against methicillin-sensitive Staphylococcus aureus ATCC 25923 after 20 to 24 hrs; type: functional
[18] = system: Staphylococcus aureus; experiment: Ratio of MBC for methicillin-sensitive Staphylococcus aureus ATCC 49775 to MIC90 for methicillin-sensitive Staphylococcus aureus ATCC 49775; type: functional
[19] = system: Staphylococcus aureus; experiment: Bactericidal activity against […] Staphylococcus aureus clinical isolate USA300 assessed as log reduction in bacterial cell number at 2 times MIC after 8 hrs by time-kill curve analysis; type: functional
[20] = system: Staphylococcus aureus; experiment: Bactericidal activity against methicillin-sensitive Staphylococcus aureus ATCC 29213 after 24 and 48 hrs; type: functional
[21] = Intrinsic clearance in mouse liver microsomes assessed per mg of protein; type: ADME; details: read-out: CLH
[22] = system: Staphylococcus aureus; experiment: Bactericidal activity against methicillin-sensitive Staphylococcus aureus ATCC 29213 assessed as log reduction in bacterial cell number at MIC after 8 hrs by time-kill curve analysis; type: functional
[23] = system: Staphylococcus aureus; experiment: Bactericidal activity against methicillin-sensitive Staphylococcus aureus ATCC 6538 after 24 and 48 hrs; type: functional
[24] = Intrinsic clearance in human liver microsomes assessed per mg of protein; type: ADME; details: read-out: CLH
[25] = Metabolic stability in mouse liver microsomes assessed as compound loss after 60 mins; type: ADME; details: read-out: Drug degradation
[26] = Cytotoxicity against human HepG2 cells after 24 hrs by WST-1 based colorimetric assay; type: cell-based
[27] = system: Staphylococcus aureus; experiment: Bactericidal activity against Methicillin-sensitive Staphylococcus aureus ATCC 29213 assessed as log reduction in bacterial cell number at 4 times MIC after 24 hrs by time kill curve analysis; type: functional, organism-based
[28] = system: Staphylococcus aureus; experiment: Ratio of MBC for methicillin-sensitive Staphylococcus aureus ATCC 25923 to MIC90 for methicillin-sensitive Staphylococcus aureus ATCC 25923; type: functional
[29] = Solubility of the compound at pH 2; type: physicochemical; details: buffer
[30] = system: Staphylococcus aureus; experiment: Bactericidal activity against methicillin-resistant Staphylococcus aureus clinical isolate after 24 and 48 hrs; type: functional
[31] = system: Staphylococcus aureus; experiment: Antibacterial activity against Staphylococcus aureus ATCC 29213 after 20 to 24 hrs in presence of 2% heat inactivated bovine serum; type: functional
[32] = system: Staphylococcus aureus; experiment: Bactericidal activity against methicillin-sensitive Staphylococcus aureus ATCC 49775 after 24 and 48 hrs; type: functional
[33] = Half life of compound in human liver microsomes; type: ADME
[34] = system: Staphylococcus aureus; experiment: Antibacterial activity against methicillin-resistant Staphylococcus aureus after 20 to 24 hrs; type: functional
[35] = system: Enterococcus; experiment: Antibacterial activity against vancomycin-resistant Enterococcus after 20 to 24 hrs; type: functional
[36] = Selectivity index, ratio of GI50 for human HepG2 cells to MIC50 for methicillin-resistant Staphylococcus aureus clinical isolate; type: functional
[37] = system: Staphylococcus aureus; experiment: Bactericidal activity against methicillin-sensitive Staphylococcus aureus ATCC 29213 assessed as log reduction in bacterial cell number at 4 times MIC after 8 hrs by time-kill curve analysis; type: functional
[38] = system: Escherichia coli; experiment: Ratio of MIC90 for Escherichia coli ATCC 25922 to MIC90 for Escherichia coli ATCC 25922 in presence of polymyxin B nonapeptide; type: functional
[39] = system: Staphylococcus aureus; experiment: Bactericidal activity against […] Staphylococcus aureus clinical isolate USA300 assessed as log reduction in bacterial cell number at 2 times MIC after 24 hrs by time-kill curve analysis; type: functional, organism-based
[40] = system: Staphylococcus aureus; experiment: Ratio of MBC for methicillin-sensitive Staphylococcus aureus ATCC 6538 to MIC90 for methicillin-sensitive Staphylococcus aureus ATCC 6538; type: functional
[41] = system: Pseudomonas aeruginosa; experiment: Ratio of MIC90 for Pseudomonas aeruginosa ATCC 27853 to MIC90 for Pseudomonas aeruginosa ATCC 27853 in presence of polymyxin B nonapeptide; type: functional
[42] = Selectivity index, ratio of GI50 for human HEL299 cells to MIC50 for methicillin-resistant Staphylococcus aureus clinical isolate; type: functional, HEL 299
[43] = system: Staphylococcus aureus; experiment: Bactericidal activity against Methicillin-sensitive Staphylococcus aureus ATCC 29213 assessed as log reduction in bacterial cell number at 8 times MIC after 24 hrs by time-kill curve analysis; type: functional, organism-based
[44] = Selectivity index, ratio of GI50 for human HEL299 cells to MIC50 for methicillin-sensitive Staphylococcus aureus clinical isolate; type: functional, HEL 299
[45] = system: Staphylococcus aureus; experiment: Bactericidal activity against methicillin-sensitive Staphylococcus aureus clinical isolate USA300 assessed as log reduction in bacterial cell number at MIC after 8 hrs by time-kill curve analysis; type: functional
[46] = system: Escherichia coli; experiment: Antibacterial activity against Escherichia coli ATCC 25922 after 20 to 24 hrs; type: functional
[47] = system: Staphylococcus aureus; experiment: Bactericidal activity against methicillin-sensitive Staphylococcus aureus ATCC 29213 assessed as log reduction in bacterial cell number at 8 times MIC after 8 hrs by time-kill curve analysis; type: functional
[48] = Half life of compound in mouse liver microsomes; type: ADME
[49] = system: Escherichia coli; experiment: Antibacterial activity against Escherichia coli ATCC 25922 after 20 to 24 hrs in presence of polymyxin B nonapeptide; type: functional

## N=C(N/N=C/c1ccc(Cl)cc1)N/N=C/c1ccc(Cl)cc1 [ROBENIDINE]
[1]
  Activity: inactive
[2]
  LD50: 2900 mg/kg
[3]
  LD50: 1500 mg/kg
[4]
  FC: <=3
[5]
  MIC90: 5.4 µM (≈ 1.8 µg/mL)
[6]
  Activity: inactive
[7]
  INH: >43.2 µM
[8]
  inhibition (INH): 100%
[9]
  Activity: >=4 log10CFU/ml
[10]
  MIC90: > 250 µM
[11]
  logD: 3.7
[12]
  MIC90: 21.6 µM
[13]
  MIC90: > 250 µM
[14]
  Activity: inactive
[15]
  Selectivity Index: 2
[16]
  LD50: 3000 mg/kg
[17]
  MIC90: 5.4 µM (≈ 1.8 µg/mL)
[18]
  Ratio: 1
[19]
  Activity: >=4 log10CFU/ml
[20]
  MBC: 5.4 µM (≈ 1.8 µg/mL)
[21]
  microsomal CLint: < 7 µL/min/mg
[22]
  Activity: >=4 log10CFU/ml
[23]
  MBC: 5.4 µM (≈ 1.8 µg/mL)
[24]
  microsomal CLint: < 7 µL/min/mg
[25]
  metabolised at 1 h: < 15%
[26]
  GI50 at 24 h: 25.4 µM
[27]
  Activity: inactive
[28]
  Ratio: 1
[29]
  solubility: 6.3 µg/mL (≈ 18.9 µM)
[30]
  MBC: 5.4 µM (≈ 1.8 µg/mL)
[31]
  MIC90: 43.1 µM
[32]
  MBC: 5.4 µM (≈ 1.8 µg/mL)
[33]
  half-life: > 247 min
[34]
  MIC: 8.1 µM (≈ 2.71 µg/mL)
[35]
  MIC: 4.7 µM (≈ 1.57 µg/mL)
[36]
  Selectivity Index: 2
[37]
  Activity: >=4 log10CFU/ml
[38]
  Ratio: 10
[39]
  Activity: inactive
[40]
  Ratio: 1
[41]
  Ratio: 10
[42]
  Selectivity Index: 2
[43]
  Activity: inactive
[44]
  Selectivity Index: 2
[45]
  Activity: >=4 log10CFU/ml
[46]
  MIC: > 400 µM
[47]
  Activity: >=4 log10CFU/ml
[48]
  half-life: > 247 min
[49]
  MIC90: 21.6 µM
